The record followed here is patent publication US7544701B2, “Sulfonyldihydrobenzimidazolone compounds as 5-hydroxytryptamine-6 ligands” (Wyeth, priority 2003, dated 2009).

Molecules are shown by their SMILES.

This experiment deals with T1, human cloned 5-HT6 receptors (Homo sapiens, UniProt P50406).
T1 construct: expressed in transfected cells; host or cells: Hela cells
T1 sequence (P50406 whole entry): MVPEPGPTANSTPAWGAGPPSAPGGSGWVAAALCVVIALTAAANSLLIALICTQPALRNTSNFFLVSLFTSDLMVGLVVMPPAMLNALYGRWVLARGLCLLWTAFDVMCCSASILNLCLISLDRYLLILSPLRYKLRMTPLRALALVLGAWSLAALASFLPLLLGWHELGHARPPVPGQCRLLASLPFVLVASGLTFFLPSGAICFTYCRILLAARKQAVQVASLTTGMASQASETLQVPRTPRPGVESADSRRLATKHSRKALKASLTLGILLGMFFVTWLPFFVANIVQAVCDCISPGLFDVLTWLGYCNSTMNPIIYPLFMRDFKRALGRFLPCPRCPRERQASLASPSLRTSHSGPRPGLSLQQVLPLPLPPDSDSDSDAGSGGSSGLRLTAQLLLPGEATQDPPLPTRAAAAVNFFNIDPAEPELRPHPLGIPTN
Description: 5-HT6 binding affinity ([3H]-LSD displacement, membranes of Hela cells expressing human cloned 5-HT6 receptors). The following applies: [3H]-LSD 3.0 nM, 120 min, room temperature, Hela cell membranes. On the procedure: The affinity of test compounds for the serotonin 5-HT6 receptor is evaluated in the following manner. Cultured Hela cells expressing human cloned 5-HT6 receptors are harvested and centrifuged at low speed (1,000×g) for 10.0 min to remove the culture media. The harvested cells are suspended in half volume of fresh physiological phosphate buffered saline solution and recentrifuged at the same speed. This operation is repeated. The collected cells are then homogenized in ten volumes of 50 mM Tris.HCl (pH 7.4) and 0.5 mM EDTA. The homogenate is centrifuged at 40,000×g for 30.0 min and the precipitate is collected. The obtained pellet is resuspended in 10 volumes of Tris.HCl buffer and recentrifuged at the same speed. The final pellet is suspended in a small volume of Tris.HCl buffer and the tissue protein content is determined in aliquots of 10-25 μl volumes. Bovine Serum Albumin is used as the standard in the protein determination according to the method described in Lowry et al., J. Biol. Chem., 193:265 (1951). The volume of the suspended cell membranes is adjusted to give a tissue protein concentration of 1.0 mg/ml of suspension. The prepared membrane suspension (10 times concentrated) is aliquoted in 1.0 ml volumes and stored at −70° C. until used in subsequent binding experiments.
Binding experiments are performed in a 96 well microtiter plate format, in a total volume of 200 μl. […] The test compounds are added in 20.0 μl volume.
The reaction is allowed to proceed in the dark for 120 min at room temperature, at which time, the bound ligand-receptor complex is filtered off on a 96 well unifilter with a Packard Filtermate® 196 Harvester. The bound complex caught on the filter disk is allowed to air dry and the radioactivity is measured in a Packard TopCount® equipped with six photomultiplier detectors, after the addition of 40.0 μl Microscint®-20 scintillant to each shallow well. The unifilter plate is heat-sealed and counted in a PackardTopCount® with a tritium efficiency of 31.0%.
Binding in the presence of varying concentrations of test compound is expressed as a percentage of specific binding in the absence of test compound. The results are plotted as log % bound versus log concentration of test compound. […] A linear regression line of data points is plotted, from which the IC50 value is determined and the Ki value is determined based upon the following equation: Ki=IC50/(1+L/KD) where L is the concentration of the radioactive ligand used and KD is the dissociation constant of the ligand for the receptor, both expressed in nM.
In the case of `O=c1n(C2=CCNCC2)c2ccccc2n1S(=O)(=O)c1c(Cl)nc2ccccn12` [Example 51, 1-[(2-chloroimidazo[1,2-a]pyridin-3-yl)sulfonyl]-3-(1,2,3,6-tetrahydropyridin-4-yl)-1,3-dihydro-2H-benzimidazol-2-one], the Ki amounted to 19 nM. Next, `Cc1nc(S(=O)(=O)n2c(=O)n(C3=CCNCC3)c3ccccc32)cn1C` [Example 52, 1-[(1,2-dimethyl-1H-imidazol-4-yl)sulfonyl]-3-(1,2,3,6-tetrahydropyridin-4-yl)-1,3-dihydro-2H-benzimidazol-2-one]: 133 nM. As for `Cc1nn(C)c(Cl)c1S(=O)(=O)n1c(=O)n(C2=CCNCC2)c2ccccc21` [Example 53, 1-[(5-chloro-1,3-dimethyl-1H-pyrazol-4-yl)sulfonyl]-3-(1,2,3,6-tetrahydropyridin-4-yl)-1,3-dihydro-2H-benzimidazol-2-one], the figure is 28 nM; as for `Cc1noc(C)c1S(=O)(=O)n1c(=O)n(C2=CCNCC2)c2ccccc21` [Example 54, 1-[(3,5-dimethylisoxazol-4-yl)sulfonyl]-3-(1,2,3,6-tetrahydropyridin-4-yl)-1,3-dihydro-2H-benzimidazol-2-one], 51 nM.

The compound `O=c1n(C2=CCNCC2)c2ccccc2n1S(=O)(=O)c1cccc2nsnc12` [Example 55, 1-(2,1,3-benzothiadiazol-4-ylsulfonyl)-3-(1,2,3,6-tetrahydropyridin-4-yl)-1,3-dihydro-2H-benzimidazol-2-one] registered a Ki of 12 nM.
